Data reported in US9296687B2, “Modulators of HSP70/DnaK function and methods of use thereof” (The Trustees of the University of Pennsylvania, priority 2008, dated 2016).

Tests used:
Type in all cases: cell-based, human
[1] = test system: NF-κB; test: NF-κB-dependent luciferase reporter in H1299 cells
Experimental: FIG. 4. PES Interferes with HSP70 Actions. […] (B) IP-WB analyses of WCE from PES-treated U2OS osteosarcoma cells reveal a lower bundance of HSP70 complexes containing BAG-1M or APAF1. […] Note evidence of caspase cleavage in cisplatin-treated cells, but not in the presence of PES. […] (D) (left) H1299 cells were transfected with a NF-κB-dependent luciferase reporter. 24 h later, cells were either pretreated with DMSO or the indicated amount of PES for 1 h, followed by the addition of 20 ng/ml of TNFα for 5 h, as specified. Each graphical representation indicates the mean±SD of at least three independent cultures relative to control (DMSO-treated) cells. (right) H1299 cells were treated with 20 μM PES for 5.7 h, followed by treatment with 10 ng/ml TNFα for 20 min. WCE were immunoblotted for the proteins indicated.

[2] = test system: H1299 and FaDu; 6113 and WI38; test: MTT assay, tumorogenic versus normal fibroblast cell lines; details: various concentrations, 48 hours
Experimental: H1299 cells were seeded on […] and treated with 10 μM PES or 10 μM PES-Cl. DMSO treated cells were used as a control and the proliferation of the H1299 cells was observed over 24 and 48 hours of treatment. The cells were imaged by light microscopy with 20× magnification (FIG. 28). Non-tumorogenic and tumorogenic cells were then treated with PES-Cl to observe its toxicity and effect on proliferation. Two tumorogenic cell lines (H1299 and FaDu) and two normal fibroblast cell lines (6113 and WI38) were seeded on a 96-well plate. The cells were treated with various concentrations of PES and PES-Cl. Forty-eight hours post-treatment MTT assays (Cayman Chemical Company) were performed (FIG. 29).

[3] = test system: Scc61 cells; test: Colony formation assay with gamma radiation; details: PES + 2 Gy
Experimental: (§1) Fadu or Scc 61 (squamous cell carcinoma of the head and neck) cell lines were grown in DMEM supplemented with 10% fetal bovine serum and antibiotics. Cells were pre-treated with PES (10 μM) for 24 hr after which they were subject to gamma radiation (either 2 or 10 Gy) and plated at different densities in 6 well plates; the wells depicted were plated at 2000 cells/well. After 10 days, colonies were stained with crystal violet.

[4] = test system: FADU cells; test: Colony formation assay with gamma radiation; details: PES 10 μM + 10 Gy
Experimental: as §1

[5] = test system: EGFR, HER2/ErbB2, AKT; test: Western blot of HSP70/HSP90 client proteins in detergent-soluble and detergent-insoluble fractions
Experimental: FIG. 17. PES impairs the proteasome system. (A) Cell-based 20S proteasome activity assay of H1299 or A875 human tumor cells treated with DMSO, 20 μM PES, 100 nM Velcade (proteasome inhibitor), 1 μM 17-AAG (HSP90 inhibitor), 5 μM CQ (lysosome inhibitor), or 20S proteasome inhibitor epigallocatechin gallate (EGCG). Each graphical representation indicates the mean±SD of at least three independent cultures relative to control (DMSO-treated) cells. (B) Cell extracts from SKBR3 human breast carcinoma cells, treated either with 20 μM PES or 1 μM 17-AAG for 24 h, were immunoprecipitated (IP) using anti-HSP70 or anti-HSP90 antibody. […] MTT assays of MCF7 human breast carcinoma cells pretreated with DMSO, or 5 μM PES for 1 h, followed by the addition of indicated amount of 17-AAG for 47 h. The results represent the mean±SD of at least three independent analysis of cultures relative to control (DMSO-treated) cells. (D and E) H1299 cells (D) or SKBR3 cells (E) were treated with DMSO, 20 μM PES, 17-AAG, or 17-AAG plus bortezomib (Velcade) as indicated; harvested in 1% NP-40 containing lysis buffer; fractionated into detergent-soluble and detergent-insoluble preparations; and assayed by western blot.
FIG. 18. Accumulation of HSP90 client proteins in the protein detergent-insoluble fraction following PES. (A) SKOV3 cells were treated with DMSO, 10 μM PES, or 20 μM PES for 24 h. Note the marked accumulation of EGFR, HER2/ErbB2, and AKT in the detergent-insoluble fraction following 20 μM PES treatment. (B and C) SKOV3 (B) or SKBR3 (C) cells were treated with DMSO, 20 μM PES, or 1 μM 17-AAG, as indicated, for 24 h. Cells were harvested in 1% NP-40 containing lysis buffer, fractionated into detergent-soluble and detergent-insoluble preparations, and assayed by western blot for the proteins indicated.
The HSP70 and HSC70 proteins bind to exposed hydrophobic regions of nascent-, translocating-, misfolded- or partially unfolded-proteins. These ATP-dependent molecular chaperones act in multi-protein complexes in conjunction with one or more regulatory co-chaperones to carry out multiple cellular functions. […] This is illustrated for H1299 cells treated with 10 or 20 μM PES for 24 h. […] This correlates with a reduced abundance of complexes containing HSP70, or HSC70, together with client proteins or co-chaperones (FIGS. 19A and 19B). […] However, since HSP70/HSC70 act as critical co-chaperones for HSP90, for example in client protein recruitment, PES-mediated alteration in the function of the 70-kDa molecular chaperones could be reflected in an altered behavior or expression of many client proteins. To test this idea, we examined the expression of a few well-established HSP90 client proteins, including the transmembrane tyrosine kinase receptors EGFR and HER2/ERBB2, and the downstream signaling factor AKT. These proteins are overexpressed, or aberrantly expressed, in a variety of human tumors, and have been implicated in cancer etiology and pathology. As a control for these studies, we compared the effects of PES to that of the well-established HSP90 inhibitor, 17-allylamino-17-demethoxygeldanamycin (17-AAG). 17-AAG interacts with the N-terminal region of HSP90 and inhibits its ATPase activity; this disrupts interactions of HSP90 with client proteins and leads to client-protein degradation via the ubiquitin-proteasome pathway (Whitesell, et al. 2005; Neckers, et al. 2007). To examine the expression of some HSP70/HSP90 clients, we used western blot analysis of detergent-soluble (clarified) whole cell extracts.

Question: Which “unstimulated NF-κB activity” value [1] does the source give for `NS(=O)(=O)C#Cc1ccccc1` [PES, 2-Phenylethynesulfonamide] here?
Answer: The value was “inhibited unstimulated NF-κB activity in a dose-dependent manner”.

Question: And the “NF-κB activation stimulated by TNFα” value ([1]; TNFα)?
Answer: The value was “inhibited NF-κB activation”.

Question: And the “cell survival, tumorogenic versus non-tumorogenic cells” value [2]?
Answer: Its value is “greater concentration dependent effect on cell survival in tumorogenic cells”.

Question: What about the “colony formation with radiation” value [3] of the same compound?
Answer: Its value is “effectively diminished the capacity of these cells to form colonies”.

Question: And the “colony formation with radiation” value [4]?
Answer: The value was “combine effectively to reduce the capacity to form colonies”.

Question: And the “EGFR, HER2/ErbB2 and AKT in the detergent-insoluble fraction” value ([5]; 20 μM, 24 h)?
Answer: Its value is “increased abundance of EGFR, HER2/ErbB2, and AKT in the detergent-insoluble fraction”.

Question: And the “expression of integrin β1 and CHIP” value ([5]; H1299 cells, 20 μM, 24 h)?
Answer: The value was “lower expression levels”.

Question: And the “overall cellular abundance of EGFR, HER2/ErbB2 and AKT” value ([5]; SKBR3 cells, detergent-soluble extracts, 24 h)?
Answer: Its value is “reduction in the overall cellular abundance”.

Question: What about the “other cellular proteins in the detergent-insoluble fraction” value ([5]; SKBR3 or SKOV3 cells) of the same compound?
Answer: Its value is “many of the proteins examined accumulate in the detergent-insoluble fraction”.
